In patent US20240393340A1, “PROGNOSIS AND PREDICTIVE BIOMARKERS AND BIOLOGICAL APPLICATIONS THEREOF” (INSTITUT GUSTAVE ROUSSY, priority 2013, published 2024):
Read-outs that look alike come from different tables or passages of the source.

Legend:
[1] = tested on: SKMEL 28; test: WST-1 cell proliferation assay (Example 2); type: cell-based
Description: (§1) Cell viability was determined using the WST-1 cell proliferation assay. Data are means±s.d. (n=3). FIG. 7B: Long-term colony formation assay of the indicated cell lines. Cells were grown in the absence or presence of vemurafenib at the indicated concentrations for two weeks. For each cell line, all dishes were fixed at the same time, stained and photographed.
(§2) Cell proliferation was measured using a WST-1 reagent (Roche Applied Science, IN, USA). Melanoma cells were plated (5000 cells per well) in 96-well tissue culture plates. After 24 h, the cells were treated with drugs or DMSO at the indicated concentrations, in triplicates. WST-1 reagent was added to the wells and incubated at 37° C. for 2 h before and after the treatment period of 48 h. […] Cell proliferation is expressed as percent of the absorbance compared to mock-treated cells.

[2] = tested on: Mel10; test: WST-1 cell proliferation assay (Example 2); type: cell-based
Description: as §1, §2

[3] = tested on: Mel888; test: WST-1 cell proliferation assay (Example 2); type: cell-based
Description: as §1, §2

[4] = tested on: A375; test: WST-1 cell proliferation assay (Example 2); type: cell-based
Description: as §1, §2

[5] = tested on: Mel624; test: WST-1 cell proliferation assay (Example 2); type: cell-based; conditions: for sensitivity of the cell line compared to other cell lines (e.g. A375, Mel888): Mel624, short-term and long-term proliferation assays, Example 2
Description: as §1
(§3) Cell viability was determined using the WST-1 cell proliferation assay. Data are means±s.d. (n=4). […] The upper left region of the figure represents increasing degrees of synergy. The minimum and maximum Bliss index values were shown as an interval within square brackets under each isobologram. The Bliss index was calculated as the ratio Observed/Expected where an index=1, […] and >1 indicates additive, antagonistic and synergistic effects, respectively.
as §2
(§4) For clonogenic assays, cells were plated at low density (1×10^3 cells per well in a 6-well tissue culture plates) in fresh media. After 24 h, cells were treated with drugs or DMSO at the indicated concentrations, in duplicates. After 14 days cells were stained with 0.5% (w/v) crystal violet in 70% ethanol and the number of colonies was counted.

[6] = tested on: A2058; test: WST-1 cell proliferation assay (Example 2); type: cell-based; conditions: for IC50: A2058, 48 h; for sensitivity of the cell line compared to other cell lines (e.g. A375, Mel888): A2058, short-term and long-term proliferation assays, Example 2
Description: as §1, §3, §2, §4

[7] = tested on: Mel624; test: Short-term growth-inhibition assay (Example 1); type: cell-based; conditions: Mel624; short-term and long-term proliferation assays, Example 1
Description: (§5) FIGS. 1A-1B: Short-term growth-inhibition assay of a panel of melanoma cell lines including BRAF (V600E) cell lines and an NRAS (Q61R) mutated cell line. FIG. 1A. Cells were treated with increasing concentrations of N-[3-[(5-Chloro-1H-pyrrolo[2,3-b]pyridin-3-yl)carbonyl]-2,4-difluorophenyl]-1-propanesulfonamide (PLX-4720) for 72 h and cell viability was determined using CellTiter-Blue by measuring the absorbance at 540 nm in a microplate reader. Error bars show data +standard error. Means were derived from four replicates (n=4). FIG. 1B. Long-term colony formation assay of the indicated cells. Cells were grown in the absence or presence of PLX-4720 at the indicated concentrations for 15-20 days. For each cell line, all dishes were fixed at the same time, stained and photographed. […]
(§6) The inventors quantified the effect of exposing these cell lines to PLX-4720 on the half-maximum inhibitory concentration (IC50) (Table 1).

[8] = tested on: A2058; test: Short-term growth-inhibition assay (Example 1); type: cell-based; conditions: A2058; short-term and long-term proliferation assays, Example 1
Description: as §5, §6

[9] = tested on: melanoma; conditions: patients, cited from earlier work
[10] = Homo sapiens, SK-MEL-28, SKMEL 28, 48 h, read-out: IC50
[11] = Homo sapiens, A-375, A375, 48 h, read-out: IC50

IC50 ([1]; SKMEL 28, 48 h, read-out: IC50) [nM] | IC50 ([4]; A375, 48 h, read-out: IC50) [nM] | Compound | IC50 ([2]; MEL10, 48 h, read-out: IC50) [nM] | IC50 ([3]; Mel888, 48 h, read-out: IC50) [nM] | IC50 ([5]; Mel624, 48 h, read-out: IC50) [nM] | sensitivity of the cell line compared to other cell lines (e.g. A375, Mel888) [5] | IC50 ([6]; read-out: IC50) [nM] | sensitivity of the cell line compared to other cell lines (e.g. A375, Mel888) [6] | IC50 [1, 10] [nM] | IC50 [4, 11] [nM] | IC50 ([6]; Homo sapiens, read-out: IC50) [nM] | other results
> 100000 | > 100000 | O=C(O)C(Cc1ccccc1[N+](=O)[O-])=NNc1nc(-c2ccc(Cl)c(Cl)c2)cs1 (mixture of isomers) [4EGi-1] | > 100000 | 77000 | 26000 | more sensitive | 50000 | more sensitive |  |  |  | sensitivity of the cell line compared to the other BRAF (V600E)-mutated melanoma cell lines [7]: more sensitive; sensitivity of the cell line compared to the other BRAF (V600E)-mutated melanoma cell lines [8]: more sensitive
60000 | 35000 | Nc1ncnc2n[nH]c(Nc3ccc(F)cc3)c12 [CGP 57380] | 28000 | 25000 | > 100000 | less sensitive | > 100000 | less sensitive |  |  |  | 
 |  | O=C(NOC[C@H](O)CO)c1ccc(F)c(F)c1Nc1ccc(I)cc1F [PD 0325901] | 3 | 2 | 96 | less sensitive |  | less sensitive | 9 | 10 | 33 | 
 |  | COC(=O)[C@H]1[C@@H](O)[C@@]2(O)c3c(OC)cc(O[C@@H]4O[C@@H]([C@H](O)CO)CO[C@H]4OC)cc3O[C@@]2(c2ccc(OC)cc2)[C@@H]1c1ccccc1 [Silvestrol] |  |  |  |  |  |  |  |  |  | IC50 ([1]; Homo sapiens, SK-MEL-28, 48 h): 3 nM; IC50 ([2]; 48 h): 46 nM; IC50 ([3]; 48 h): 17 nM; IC50 ([4]; Homo sapiens, A-375, 48 h): 21 nM; IC50 ([5]; 48 h): 4 nM; IC50 ([6]; Homo sapiens): 2 nM
 |  | CCCS(=O)(=O)Nc1ccc(F)c(C(=O)c2c[nH]c3ncc(-c4ccc(Cl)cc4)cc23)c1F [Vemurafenib] | > 10000 | 100 | 2000 |  |  |  | 400 | 400 | 2400 | 
 |  | CC(C)(C)c1nc(-c2cccc(NS(=O)(=O)c3c(F)cccc3F)c2F)c(-c2ccnc(N)n2)s1 [dabrafenib] |  |  |  |  |  |  |  |  |  | response rate (objective responses) [9]: 50%; progression-free survival ([9]; compared with chemotherapy): 5.1 months; progression-free survival hazard ratio ([9]; versus chemotherapy): 0.30
